pIC50, pKd: −log10 of the molar value. *1 amine or outer side, *2 acyl side, *3 side chain or, on linkers, in order; H or OH if unused. Where a SMILES comes first, the peptide text is derived from it. Bridges are numbered along the chain shown (N, C = ends). [ ]: non-standard residue; d: D form. Phe(3,4-Cl2) = N[C@@H](Cc1ccc(Cl)c(Cl)c1)C(=O)O; X2 = O=C(CN(CC(=O)[*:2])CC(=O)[*:3])[*:1]; X1 = NCCC(=O)N[C@@H](CN[*:2])C(=O)[*:1]; Ala(cPent) = N[C@@H](CC1CCCC1)C(=O)O; Glutaryl = O=C(CCCC(=O)[*:2])[*:1]; hhPhe = N[C@@H](CCCc1ccccc1)C(=O)O; NMeL = CN[C@@H](CC(C)C)C(=O)O; Orn = NCCC[C@H](N)C(=O)O; βAla = NCCC(=O)O
Experiments:
H1 HA A/Brisbane/59/07 = H1 HA A/Brisbane/59/07 (Influenza A virus, UniProt D5F1Q8); assay: AlphaLISA binding competition, HA + stem-binder
Excerpt: (§1) Binding competition studies were designed to test compounds for competition with other well characterized HA binding proteins (including e.g. CR9114) with known epitopes on HA. The epitopes where either located at the stem of the HA (viral membrane proximal part of HA) or, for control purposes, at the head of HA (viral membrane distal part of HA). If competition was observed, it is assumed that both molecules bind to a similar or at least overlapping epitope at the surface of HA. Competition with a HA head- and stem-binder was interpreted as unspecific binding.
(§2) Hereto an AlphaLISA competition assay (Perkin Elmer) was established which relied on biotinylated full length and trimeric HA proteins (Protein Sciences, 10 μL, 0.5 nM final concentration in 50 μL) bound by HA-specific binders. The interaction between HA and the binder was detected after 1 h incubation at room temperature (RT) with two beads, a streptavidin donor bead recognizing HA (10 μL of 10 μg/mL) and an anti Fc bead (10 μg/mL) recognizing the IgGs used. If after an additional hour of incubation at RT the excited donor bead (680 nm) and acceptor bead are in close proximity, an energy transfer (singlet oxygen) can be measured as a luminescence signal of the acceptor bead (Perkin Elmer EnVision plate reader). The signal intensity in this homogeneous assay format is directly proportional to the binding strength (affinity/avidity) between both binding partners.

[1] = molecular target: H1 HA A/New Caledonia/20/1999 (Influenza A virus, UniProt Q6WG00); assay: AlphaLISA binding competition, HA + stem-binder
Excerpt: as §1, §2

[2] = molecular target: T1, H1 HA A/California/07/2009 (Influenza A virus, UniProt C3W5X2); assay: AlphaLISA binding competition, HA + stem-binder
Excerpt: as §1, §2

[3] = molecular target: HA A/Vietnam/1194/04 (H5) (Influenza A virus, UniProt A5A5M5); assay: biochemical; assay type: binding; conditions: for koff: read-out: dissociation rate kd
[4] = molecular target: T1, H1 HA A/California/07/2009; assay: AlphaLISA binding competition, HA + head-binder (control)
Excerpt: as §1, §2

[5] = molecular target: HA A/New Caledonia/20/99 (H1) (Influenza A virus, UniProt Q6WG00); assay: biochemical; assay type: binding; conditions: for koff: read-out: dissociation rate kd
[6] = molecular target: HA A/California/07/09 (H1) (Influenza A virus, UniProt C3W5X2); assay: biochemical; assay type: binding; conditions: for koff: read-out: dissociation rate kd

Work on `CC(=O)N[C@@H](CCCc1ccccc1)C(=O)N[C@H]1CCCNC(=O)CCNC(=O)[C@H](CO)NC(=O)[C@H](CC(C)C)NC(=O)[C@H](Cc2c[nH]c3ccccc23)NC(=O)[C@H](CCC(=O)O)NC(=O)[C@H](Cc2ccc(Cl)c(Cl)c2)NC(=O)[C@H](Cc2ccc(O)cc2)NC(=O)[C@H](CCC(=O)O)NC(=O)[C@H](CC(C)C)NC1=O` [CP141019] (Ac-[hhPhe][Orn]LEY[Phe(3,4-Cl2)]EWLS[βAla]; lactam 2-C) yielded a pIC50 (H1 HA A/Brisbane/59/07) of 7.33, a pIC50 [1] of 7.30 and a pIC50 [2] of 7.15. For the same compound, the pKd [3] was 7.50, the koff [3] was 0.0533 s⁻¹ and the pIC50 [4] was under 4.30. The pKd [5] was 7.75, the koff [5] was 0.0589 s⁻¹ and the pKd [6] was 7.77. For the same compound, the koff [6] was 0.182 s⁻¹.
With `CC(=O)N[C@@H](CCCc1ccccc1)C(=O)N[C@H]1CCCNC(=O)CCNC(=O)[C@H](CO)NC(=O)[C@H](CC(C)C)NC(=O)[C@H](Cc2c[nH]c3ccccc23)NC(=O)[C@H](CCC(=O)O)NC(=O)[C@H](Cc2ccccc2)NC(=O)[C@H](Cc2ccc(O)cc2)NC(=O)[C@H](CCCNC(=N)N)NC(=O)[C@H](CC(C)C)NC1=O` [CP132070] (Ac-[hhPhe][Orn]LRYFEWLS[βAla]; lactam 2-C) the pIC50 [1] was 6.75, the pIC50 [2] was 6.54 and the pIC50 [4] was under 4.30.
`CC(=O)N[C@@H](CCCc1ccccc1)C(=O)N[C@H]1CCCNC(=O)CCNC(=O)[C@H](CO)NC(=O)[C@H](CC(C)C)NC(=O)[C@H](Cc2c[nH]c3ccccc23)NC(=O)[C@H](CCC(=O)O)NC(=O)[C@H](Cc2ccccc2)NC(=O)[C@H](Cc2ccc(O)cc2)NC(=O)[C@H](CCC(=O)O)NC(=O)[C@H](CC(C)C)N(C)C1=O` [CP141037] (Ac-[hhPhe][Orn][NMeL]EYFEWLS[βAla]; lactam 2-C) showed a pIC50 (H1 HA A/Brisbane/59/07) of 7.06, a pIC50 [1] of 7.09 and a pIC50 [2] of 6.69. For the same compound, the pKd [3] was 7.19, the koff [3] was 0.0845 s⁻¹ and the pIC50 [4] was under 4.30. For the same compound, the pKd [5] was 7.35, the koff [5] was 0.0753 s⁻¹ and the pKd [6] was 7.21. The koff [6] was 0.184 s⁻¹.
For `CC(=O)N[C@@H](CCCc1ccccc1)C(=O)N[C@H]1CCCNC(=O)[C@@H](NC(=O)CCN)CNC(=O)[C@H](CO)NC(=O)[C@H](CC(C)C)NC(=O)[C@H](Cc2c[nH]c3ccccc23)NC(=O)[C@H](CCC(=O)O)NC(=O)[C@H](Cc2ccccc2)NC(=O)[C@H](Cc2ccc(O)cc2)NC(=O)[C@H](CCC(=O)O)NC(=O)[C@H](CC(C)C)NC1=O` [CP141099] (Ac-[hhPhe][Orn]LEYFEWLS; linker 2-C via X1), the pIC50 (H1 HA A/Brisbane/59/07) was 7.17, the pIC50 [1] was 7.56 and the pIC50 [2] was 7.23. For the same compound, the pKd [3] was 7.56, the koff [3] was 0.0652 s⁻¹ and the pIC50 [4] was under 4.30. It also gave a pKd [5] of 7.60, a koff [5] of 0.101 s⁻¹ and a pKd [6] of 7.58. The koff [6] was 0.252 s⁻¹.
Work on `CC(=O)N[C@@H](CCCc1ccccc1)C(=O)N[C@H]1CCCNC(=O)CCNC(=O)[C@H](CO)NC(=O)[C@H](CC(C)C)NC(=O)[C@H](Cc2c[nH]c3ccccc23)NC(=O)[C@H](CCC(=O)O)NC(=O)[C@H](Cc2ccccc2)NC(=O)[C@H](Cc2ccc(O)cc2)NC(=O)[C@H](CCCCNC(=O)CCCC(=O)O)NC(=O)[C@H](CC(C)C)NC1=O` [CP141066] (Ac-[hhPhe][Orn]LK(Glutaryl)YFEWLS[βAla]; lactam 2-C) yielded a pIC50 [1] of 6.73, a pIC50 [2] of 6.61 and a pIC50 [4] of under 4.30.
Compound `CC(=O)N[C@@H](CCCc1ccccc1)C(=O)N[C@H]1CCCNC(=O)CCNC(=O)[C@H](CO)NC(=O)[C@H](CC(C)C)NC(=O)[C@H](Cc2c[nH]c3ccccc23)NC(=O)[C@H](CCC(=O)O)NC(=O)[C@H](Cc2ccccc2)NC(=O)[C@H](Cc2ccc(O)cc2)NC(=O)[C@H](CCC(=O)O)NC(=O)[C@H](CC2CCCC2)NC1=O` [CP141036] (Ac-[hhPhe][Orn][Ala(cPent)]EYFEWLS[βAla]; lactam 2-C) has a pIC50 (H1 HA A/Brisbane/59/07) of 6.84, a pIC50 [1] of 6.87 and a pIC50 [2] of 6.40. It also gave a pIC50 [4] of under 4.30.
`CC(=O)N[C@@H](CCCNC(=N)N)C(=O)N[C@H]1CCCNC(=O)CN2CC(=O)NCCC[C@@H](C(N)=O)NC(=O)[C@H](CO)NC(=O)[C@H](CC(C)C)NC(=O)[C@H](Cc3c[nH]c4ccccc34)NC(=O)[C@H](CCC(=O)O)NC(=O)[C@H](Cc3ccccc3)NC(=O)[C@H](Cc3ccc(O)cc3)NC(=O)[C@H](CCCNC(=O)C2)NC(=O)[C@H](CC(C)C)NC1=O` [CP141032] (Ac-R[Orn]L[Orn]YFEWLS[Orn]-NH2; linker 2-4-11 via X2) gave a pIC50 [1] of 5.65, a pIC50 [2] of 5.02 and a pIC50 [4] of under 4.30.
